Assay results from PubChem BioAssay (NCI).
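Test compounds were applied to cells in 96-well plates for 48 hours at 5 doses. Abbreviation: GI50, concentration required for 50% inhibition of growth. TGI denotes the concentration required for complete inhibition of growth.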

Assays:
Test in all cases: NCI anticancer screen, dose series, 48 h
MOLT-4 leukemia = system: MOLT-4 leukemia
CAKI-1 renal = system: CAKI-1 renal
HOP-62 NSCLC = system: HOP-62 NSCLC
MCF7 breast = system: MCF7 breast
RPMI-8226 leukemia = system: RPMI-8226 leukemia
SK-MEL-5 melanoma = system: SK-MEL-5 melanoma
OVCAR-4 ovarian = system: OVCAR-4 ovarian
NCI-H460 lung = system: NCI-H460 lung
MDA-MB-231 breast = system: MDA-MB-231 breast
SF-539 CNS = system: SF-539 CNS
SNB-75 CNS = system: SNB-75 CNS

COC1=C(OC)C(=O)C(Cc2c(Cl)nc3sc(C)cn23)=C(C)C1=O
TGI (MOLT-4 leukemia): 4.21 µM | TGI (CAKI-1 renal): 72.7 µM | TGI (HOP-62 NSCLC): 36 µM | TGI (MCF7 breast): 63.5 µM | TGI (RPMI-8226 leukemia): 31.8 µM | TGI (SK-MEL-5 melanoma): 23.9 µM | TGI (OVCAR-4 ovarian): 20.6 µM | TGI (NCI-H460 lung): 37.8 µM | TGI (MDA-MB-231 breast): 41.8 µM | TGI (SF-539 CNS): 34.6 µM

Nc1ncnc2nc[nH]c12
GI50 (MOLT-4 leukemia): 15.8 µM | TGI (MOLT-4 leukemia): 159 µM | GI50 (CAKI-1 renal): 58.9 µM | TGI (CAKI-1 renal): > 250 µM | TGI (HOP-62 NSCLC): > 250 µM | TGI (MCF7 breast): > 162 µM | TGI (RPMI-8226 leukemia): > 250 µM | TGI (SNB-75 CNS): > 155 µM | TGI (SK-MEL-5 melanoma): > 250 µM | TGI (OVCAR-4 ovarian): > 250 µM | GI50 (NCI-H460 lung): 21.3 µM | TGI (NCI-H460 lung): > 250 µM | TGI (SF-539 CNS): > 250 µM

O=C(Nc1ccc(Cl)cc1)c1cc2cc(N=Nc3ccccc3Cl)ccc2oc1=O
TGI (MOLT-4 leukemia): 10.1 µM | TGI (CAKI-1 renal): > 100 µM | TGI (HOP-62 NSCLC): 61.9 µM | TGI (RPMI-8226 leukemia): 30.3 µM | TGI (SNB-75 CNS): 72.5 µM | TGI (SK-MEL-5 melanoma): 61.9 µM | TGI (OVCAR-4 ovarian): > 100 µM | TGI (NCI-H460 lung): > 100 µM | TGI (SF-539 CNS): 31.3 µM

O=C([O-])C[n+]1ccccc1
TGI (MOLT-4 leukemia): > 100 µM | TGI (CAKI-1 renal): > 100 µM | TGI (HOP-62 NSCLC): > 100 µM | TGI (MCF7 breast): > 100 µM | TGI (RPMI-8226 leukemia): > 100 µM | TGI (SNB-75 CNS): > 100 µM | TGI (SK-MEL-5 melanoma): > 100 µM | TGI (OVCAR-4 ovarian): > 100 µM | TGI (NCI-H460 lung): > 100 µM | TGI (MDA-MB-231 breast): > 100 µM | TGI (SF-539 CNS): > 100 µM

CCOc1ccc(NC(=O)C(=O)CC(=O)c2sc(NNC(C)=O)nc2C)cc1
TGI (MOLT-4 leukemia): > 100 µM | TGI (CAKI-1 renal): > 100 µM | TGI (HOP-62 NSCLC): > 100 µM | TGI (RPMI-8226 leukemia): > 100 µM | TGI (SNB-75 CNS): > 100 µM | TGI (SK-MEL-5 melanoma): > 100 µM | TGI (OVCAR-4 ovarian): > 100 µM | TGI (NCI-H460 lung): > 100 µM | TGI (SF-539 CNS): > 100 µM

CC(CCN)(CCN)[N+](=O)[O-]
TGI (MOLT-4 leukemia): > 100 µM | TGI (CAKI-1 renal): > 100 µM | TGI (HOP-62 NSCLC): > 100 µM | TGI (MCF7 breast): > 100 µM | TGI (RPMI-8226 leukemia): > 100 µM | TGI (SNB-75 CNS): > 100 µM | TGI (SK-MEL-5 melanoma): > 100 µM | TGI (OVCAR-4 ovarian): > 100 µM | TGI (NCI-H460 lung): > 100 µM | TGI (MDA-MB-231 breast): > 100 µM | TGI (SF-539 CNS): > 100 µM

C[C@]12C=CC(=O)C=C1CC[C@@H]1[C@@H]2CC[C@]2(C)OC(=O)CC[C@@H]12
TGI (MOLT-4 leukemia): > 500 µM | TGI (CAKI-1 renal): > 404 µM | TGI (HOP-62 NSCLC): > 471 µM | TGI (MCF7 breast): > 500 µM | TGI (RPMI-8226 leukemia): > 500 µM | TGI (SNB-75 CNS): > 487 µM | TGI (SK-MEL-5 melanoma): > 477 µM | TGI (OVCAR-4 ovarian): > 500 µM | TGI (NCI-H460 lung): > 500 µM | TGI (MDA-MB-231 breast): > 500 µM | TGI (SF-539 CNS): > 476 µM

CCOC(=O)c1cnc2oc3ccc(O)cc3c2c1C
TGI (MOLT-4 leukemia): > 100 µM | TGI (CAKI-1 renal): > 100 µM | TGI (MCF7 breast): > 100 µM | TGI (RPMI-8226 leukemia): > 100 µM | GI50 (SNB-75 CNS): 26 µM | TGI (SNB-75 CNS): 82.9 µM | TGI (SK-MEL-5 melanoma): > 100 µM | TGI (OVCAR-4 ovarian): > 100 µM | TGI (NCI-H460 lung): > 100 µM | TGI (MDA-MB-231 breast): > 100 µM | TGI (SF-539 CNS): > 100 µM

CCOC(=O)C1=C(C)OC2(O)C=CC(O)=C3C(=O)N(c4ccccc4)C(=O)C312 (stereo not drawn)
TGI (MOLT-4 leukemia): > 100 µM | TGI (CAKI-1 renal): > 100 µM | TGI (HOP-62 NSCLC): > 100 µM | TGI (MCF7 breast): 79.4 µM | TGI (RPMI-8226 leukemia): 86.1 µM | TGI (SNB-75 CNS): 87.8 µM | TGI (OVCAR-4 ovarian): > 100 µM | TGI (NCI-H460 lung): > 100 µM | TGI (MDA-MB-231 breast): > 100 µM | TGI (SF-539 CNS): 68.2 µM

COCCOC(=O)c1c(C)n([O-])c2cc(Cl)c(Cl)cc2[n+]1=O
TGI (MOLT-4 leukemia): 62.5 µM | TGI (CAKI-1 renal): 45.4 µM | TGI (HOP-62 NSCLC): 35 µM | TGI (MCF7 breast): > 100 µM | TGI (RPMI-8226 leukemia): 18.8 µM | TGI (SK-MEL-5 melanoma): 21.6 µM | TGI (OVCAR-4 ovarian): 30.8 µM | TGI (NCI-H460 lung): 25.9 µM | TGI (MDA-MB-231 breast): 53.8 µM | TGI (SF-539 CNS): 51.1 µM

O=C(O)c1cc([N+](=O)[O-])cc2c(=O)c3cnccc3[nH]c12
TGI (MOLT-4 leukemia): > 100 µM | TGI (CAKI-1 renal): > 100 µM | TGI (HOP-62 NSCLC): > 100 µM | TGI (MCF7 breast): > 100 µM | TGI (RPMI-8226 leukemia): > 100 µM | TGI (SNB-75 CNS): > 100 µM | TGI (SK-MEL-5 melanoma): > 100 µM | TGI (OVCAR-4 ovarian): > 100 µM | TGI (NCI-H460 lung): > 100 µM | TGI (MDA-MB-231 breast): > 100 µM

CC(C)=CCC/C(C)=C/CC/C(C)=C/CC/C(C)=C/C=C/C=C(\C)CC/C=C(\C)CC/C=C(\C)CCC=C(C)C
TGI (MOLT-4 leukemia): 49 µM | TGI (CAKI-1 renal): 32.1 µM | TGI (HOP-62 NSCLC): > 100 µM | TGI (MCF7 breast): > 100 µM | TGI (RPMI-8226 leukemia): > 100 µM | TGI (SNB-75 CNS): > 100 µM | TGI (SK-MEL-5 melanoma): > 79.9 µM | TGI (OVCAR-4 ovarian): > 100 µM | TGI (NCI-H460 lung): > 58.4 µM | TGI (MDA-MB-231 breast): > 100 µM | TGI (SF-539 CNS): > 100 µM

NN(CC(=O)O)CC(=O)O
TGI (MOLT-4 leukemia): > 100 µM | TGI (CAKI-1 renal): > 100 µM | TGI (HOP-62 NSCLC): > 100 µM | TGI (MCF7 breast): > 100 µM | TGI (RPMI-8226 leukemia): > 100 µM | TGI (SK-MEL-5 melanoma): > 100 µM | TGI (OVCAR-4 ovarian): > 100 µM | TGI (NCI-H460 lung): > 100 µM | TGI (MDA-MB-231 breast): > 100 µM | TGI (SF-539 CNS): > 100 µM

CCCCCCCCCCCCCCCCCCOc1ccccc1CC(=O)OCC[N+]1(C)CCCCC1
GI50 (MOLT-4 leukemia): 1.73 µM | TGI (MOLT-4 leukemia): 3.89 µM | GI50 (CAKI-1 renal): 1.74 µM | TGI (CAKI-1 renal): 4.87 µM | GI50 (MCF7 breast): 2070 nM | TGI (MCF7 breast): 4.97 µM | GI50 (SNB-75 CNS): 1.39 µM | TGI (SNB-75 CNS): 3.72 µM | GI50 (OVCAR-4 ovarian): 2810 nM | TGI (OVCAR-4 ovarian): 10.5 µM | GI50 (NCI-H460 lung): 2.34 µM | TGI (NCI-H460 lung): 5.43 µM | GI50 (MDA-MB-231 breast): 1830 nM | TGI (MDA-MB-231 breast): 3.89 µM | GI50 (SF-539 CNS): 1970 nM | TGI (SF-539 CNS): 3.89 µM

COc1cc2c(c(O)c1OC)-c1c(cc(OC)c(OC)c1OC)CC(C)C(C)C2 (stereo not drawn)
TGI (MOLT-4 leukemia): 43.4 µM | TGI (CAKI-1 renal): > 100 µM | TGI (HOP-62 NSCLC): > 100 µM | TGI (MCF7 breast): > 100 µM | TGI (RPMI-8226 leukemia): > 100 µM | TGI (SNB-75 CNS): > 100 µM | TGI (SK-MEL-5 melanoma): > 100 µM | TGI (OVCAR-4 ovarian): > 100 µM | TGI (NCI-H460 lung): > 100 µM | TGI (MDA-MB-231 breast): > 100 µM | TGI (SF-539 CNS): > 100 µM

CN1CCOC(c2ccc(Cl)cc2)O1 (stereo not drawn)
TGI (MOLT-4 leukemia): > 100 µM | TGI (CAKI-1 renal): > 100 µM | TGI (HOP-62 NSCLC): > 100 µM | TGI (MCF7 breast): > 100 µM | TGI (SNB-75 CNS): > 100 µM | TGI (SK-MEL-5 melanoma): > 100 µM | TGI (OVCAR-4 ovarian): > 100 µM | TGI (NCI-H460 lung): > 100 µM | TGI (MDA-MB-231 breast): > 100 µM | TGI (SF-539 CNS): > 100 µM
